Results from patent US12016834B2, “Small molecule inhibitors of SLC25A1” (GEORGETOWN UNIVERSITY, priority 2017, dated 2024).

Legend:
MP2 cells [1] = assay: Seahorse OCR and ATP in patient-derived cells; assay type: cell-based, human; conditions: monolayer, chronic treatment for several passages (FIG. 6B)
Description: (§1) Primary lung cancer cultures and GMSC. Surgical samples were minced and digested with dispase (50 U/ml) in DMEM media containing 5% serum for 1 hour. Pleural effusions were centrifuged, washed once in PBS, and then plated. All primary cultures were initially grown on 6-well plates pre-coated with 2% Geltrex (Life Technologies; Carlsbad, CA) and 1% Maxgel (Sigma Aldrich). Maxgel is a humanized matrix, native and non-denatured. The inclusion of Maxgel in the system enhanced the initial attachment of primary tumor cells, partially because Maxgel provides a more natural ECM conformational substrate. The day after plating, the media containing unattached cells was typically transferred to a fresh plate, in most of cases generating new attached cultures. The media (Stem Cell Media) is the DMEM/F12 (Thermo-Fisher #11320-033 basic media) supplemented with the following components: Insulin-Transferrin-Sodium selenite (ITS; 1:1000; Sigma #11884); glutamine (Thermo-Fisher) to 4 mM final concentration; sodium pyruvate (Thermo-Fisher) to 2 mM final concentration; rock inhibitor (Y-27632) 10 micrograms/mL; 2-5% Knock Out Serum Replacement (KNOSR, Thermo-Fisher #10828-028); 0.5% ALBUMAX-(Lipid enriched BSA; Thermo-Fisher #11020-021); N2 Supplement (Thermo-Fisher) 1:250; EGF (5 ng/ml; Peprotech); hFGF (20 ng/ml; Bechman); and IGF-1 (Peprotech; 10-20 ng/ml).
(§2) Seahorse extracellular flux analyzer experiments. Cells derived from spheres or monolayer cultures were dissociated and plated overnight at 12,000 cells/well in DMEM with 10% FBS, 5 mM glucose, 1 mM pyruvate, 2 mM glutamine.
(§3) For the mitochondrial stress test, the media was replaced with DMEM without FBS or bicarbonate, containing 5 mM glucose, 1 mM pyruvate, 2 mM glutamine and placed in a CO2 free incubator at 37° C. for 1 hour, and then transferred to the Xf96 extracellular flux analyzer (Agilent; Santa Clara, CA). The program consisted of 3 measurements of OCR/ECAR before the injection of each drug: oligomycin (0.5 μM final concentration), FCCP (2 μM) and rotenone/antimycin (0.5 μM of each). For the glycolysis stress test, cells were plated overnight as above, and the media was washed twice the following day with DMEM without FBS, bicarbonate, glucose, glutamine or pyruvate, and incubated in this media in a CO2 free incubator with/without drug treatments at 37° C. for 4 hours. There were 3 measurements of OCR/ECAR before each injection: glucose (10 mM final concentration), oligomycin (0.5 […] (50 mM). For the analysis of glutamine oxidation, the protocol was the same as the glucose stress test, but with glutamine being the only compound injected (final concentration 4 mM) and OCR/ECAR measured for 60 minutes. When spheres were analyzed, they were dissociated with StemPro® Accutase® (Thermo Scientific; Waltham, MA) and plated under the same conditions as above as for the monolayers the day before the assay (H1299 spheres), or in stem cell media (See Stem Cell Media) with the wells coated in 15 μL of 2% geltrex diluted in DMEM:F12 (Thermo Scientific). The results were normalized to cell number.

MP1 cells [2] = assay: Viability (Crystal Violet) and drug interaction (R index); assay type: cell-based, human; conditions: single drug, 5 days, monolayer
Description: (§4) Cellular proliferation and cytotoxicity assays. […] The cells were then washed with 1×PBS and fixed with cold 100% methanol at−20° C. for 20 minutes. Methanol was washed off and the cells were stained with 0.5% crystal violet dissolved in 25% methanol and water at 4° C. for 20 minutes. The staining was washed off using deionized (DI) water and the plate was dried overnight. On the second day, 100 mM sodium citrate in 50% ethanol and 50% water was added to the wells and absorbance at 550 nm was measured and corrected with readings at 405 nm. In other experiments, cell viability was assessed by trypan blue exclusion and visual count of the live cells was performed.
(§5) Statistical methods for drug interactions. […] Sexp/Sobs=1.0 denotes an additive interaction, while >1.0 denotes a synergistic interaction. R index values approaching 2.0 are indicative of strong synergy.

MP3 cells = assay: as above; assay type: cell-based, human; conditions: single drug, 5 days, monolayer
Description: as §4, §5

MP2 cells [3] = assay: as above; assay type: cell-based, human; conditions: single drug, 5 days, monolayer
Description: as §4, §5

H1299 cells [4] = assay: Proliferation / viability in monolayer (2D) cultures; assay type: cell-based, human; conditions: for anti-proliferative activity in 2D cultures: Rotenone 10 nM, Oligomycin 1 mM, metformin 3 mM (FIG. 3I)
Description: Cellular proliferation and cytotoxicity assays. The proliferative capacity of cells was assessed by plating cells in triplicate at a concentration of 2,000 to 10,000 cells/well in 96 well plates in triplicate, with or without drug treatment for 48 hours. The cells were then washed with 1×PBS and fixed with cold 100% methanol at−20° C. for 20 minutes. Methanol was washed off and the cells were stained with 0.5% crystal violet dissolved in 25% methanol and water at 4° C. for 20 minutes. The staining was washed off using deionized (DI) water and the plate was dried overnight. On the second day, 100 mM sodium citrate in 50% ethanol and 50% water was added to the wells and absorbance at 550 nm was measured and corrected with readings at 405 nm. In other experiments, cell viability was assessed by trypan blue exclusion and visual count of the live cells was performed.

H1299 cells [5] = assay: Sphere forming / self-renewal assay; assay type: cell-based, human; conditions: for self-renewal: single-cell derived spheres, Rotenone 10 nM, Oligomycin 1 mM, metformin 3 mM (FIG. 3I)
Description: Growth of monolayers and sphere cultures. Tumor cell lines were grown as monolayers in complete Dulbecco's Modified Eagle's Media (DMEM, Gibco; supplemented with 10% fetal bovine serum and 1% of 5,000 units/mL of penicillin-streptomycin (pen-strep), Gibco). To generate spheroids, cells were grown in Falcon bacteriological petri dishes coated with 2% poly(2-hydroxyethyl methacrylate) dissolved in 100% ethanol. The growth media was DMEM/F12 (Gibco) supplemented with 20 ng/mL of epidermal growth factor (EGF), 5 ng/mL of fibroblast growth factor, 0.375% 100× N2 supplements (Gibco), and 1% pen-strep. Monolayer cells were dissociated using 0.25% trypsin-edta (Gibco), whereas spheroid cultures were dissociated using StemPro Accutase (Gibco). Patient derived cell lines were grown as described below in the primary lung cultures section.
Self-renewal assays. Tumor cells cultured as spheroids were dissociated and diluted in 2× sphere media containing 1% methyl cellulose, which was previously dissolved in cold DMEM/F12 media. Either 200, 500, or 1000 cells were then plated in each 96 well and were incubated in the presence or absence of drugs, as indicated. The spheres were allowed to form for a period of a week to ten days, at which point they were counted. Six biological replicates were used for quantification of the results.

SLC25A1 = SLC25A1 (Homo sapiens, UniProt P53007); assay: Surface plasmon resonance (SPR) binding to recombinant purified SLC25A1; conditions: steady state, 1:1 binding model; human protein
SLC25A1, sequence (P53007 14-311): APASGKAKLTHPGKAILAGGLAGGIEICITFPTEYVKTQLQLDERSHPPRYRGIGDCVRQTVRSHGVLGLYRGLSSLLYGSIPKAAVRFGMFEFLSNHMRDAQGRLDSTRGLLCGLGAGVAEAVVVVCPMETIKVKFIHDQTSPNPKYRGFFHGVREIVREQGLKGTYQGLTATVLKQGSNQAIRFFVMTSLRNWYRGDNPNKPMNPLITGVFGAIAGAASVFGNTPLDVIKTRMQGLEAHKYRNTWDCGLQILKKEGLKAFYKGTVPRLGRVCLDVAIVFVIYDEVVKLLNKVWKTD
Description: Surface Plasmon Resonance (SPR). SPR experiments were performed on a Biacore 4000 instrument at room temperature. The NTA sensorchip surface was activated by injecting 0.5 mM NiCl2 for 1 minute. Histidine-tagged recombinant purified SLC25A1 protein (0.07 mg/ml stock concentration) was used as the ligand to capture on the sensor surface. SLC25A1 was dissolved (1:50 dilution) in PBS-P (20 mM phosphate buffer (pH 7.4), 2.7 mM KCl, 137 mM NaCl and 0.05% surfactant P20) buffer and captured onto spots 2 and 4. SLC25A1 was captured to a level of ˜3000. PBS-P was used as the capture running buffer. Small molecules were used as analytes to flow over the ligand immobilized surface. Spot 3 of all flow cells were used as reference. The calculated theoretical Rmax was ˜30 RU based on a 1:1 interaction. The kinetics experiments were performed in the presence of HBS-P (10 mM HEPES (pH7.4), 150 mM NaCl, and 0.05% surfactant P20). The flow rate of all the solutions was maintained at 30 μL/min. The analyte concentrations were 0 μM, […], 6.25 μM, 12.5 μM, 25 μM, 50 μM, and 100 μM. Analyte concentrations showing signs of aggregation were excluded from the analysis. Data were analyzed by Biacore BiaEvaluation software for 1:1 steady state binding model.

MP1 cells [6] = assay: Seahorse OCR and ATP in patient-derived cells; assay type: cell-based, human; conditions: monolayer, chronic treatment for several passages (FIG. 6A)
Description: as §1, §2, §3

MP1 cells [7] = assay: Apoptosis by annexin V and PI flow cytometry; assay type: cell-based, human; conditions: drug alone
Description: Flow cytometry. Tumor cells were trypsinized and washed in 1×PBS. The cells were then stained with the antibodies of choice: CD166-PE (Biolegend), CD133-647 (Biolegend), or CD44 (Biolegend), in 1% BAS-PBS. The cell cycles of monolayers or spheres of the cells were analyzed by fixing the cells in cold 75% ethanol. The annexin V (Biolegend) and propidium iodide (Biolegend) experiments were carried out.

MP1 cells [8] = assay: Tumor xenograft in immuno-compromised mice; assay type: in vivo
Description: Mice and treatments. To produce tumor xenografts, 5×10^6 cells derived from either monolayer cultures or GMSC expanded spheres were dissociated with Accutase, resuspended in PBS, and injected subcutaneously in the flanks of female balb athymic mice. Once detectable tumors started to form, their sizes were measured with a caliper in three dimensions and mice were randomized in the different treatment groups. […] Cisplatin was administered at 26 mg/kg every three or four days. AZD9291 was administered at 25/mg/Kg every 3 days. Serial measurements were made every day after the identification of the initial tumor mass to determine growth curves in vivo. Tumor volume was calculated using the formula for a prolate spheroid: volume=[…], where a is the width and b is the length. All animals were sacrificed when the tumors exceeded 1.5 cm. At the completion of experiments, tumors were excised, weighed, and the statistical significances of differences in tumor volume were assessed. Animals were monitored once a week for the presence of signs of disease, particularly neurological disturbances or weight loss, and they were weighed periodically.
Statistics. For the animal studies, power calculations for each treatment group were first determined. The number of animals was calculated to detect a 50% difference at alpha=0.05 and power=0.8. Statistical significance was assessed using both unpaired, two-tailed Student t test, and analysis of variance (ANOVA). Significant differences are indicated using the standard […] scale (P<0.05, significant; P<0.01, highly significant; P<0.001, extremely significant).

H1299 cells [9] = assay: Glycolysis: ECAR (Seahorse) and lactic acid levels; assay type: cell-based, human; conditions: sphere-grown CSCs (FIG. 11C)
Description: Cells, reagents, antibodies, primers. The H1299 cell lines and other cell lines employed in this study were obtained from ATCC or from the tissue culture core facility at LCCC. Cells were grown in Dulbecco's Modified Eagle's Medium (DMEM, 25 mM glucose, with glutamine and pyruvate from Invitrogen; Carlsbad, CA) and supplemented with 10% fetal calf serum (FCS). […] The SLC25A1 specific shRNA vectors were purchased from Sigma. The vector expressing human SLC25A1 untagged or Flag-Myc epitope tagged were from Origene; Rockville, MD (#SC120727 and RC200657, respectively). The anti-SLC25A1 antibody used in immuno-blot was from Santa Cruz Biotech, #sc-86392 employed at 1:1000 dilution. Citrate, lactate, and PFK measurements were performed by using commercially available kits (Biovision (Milpitas, CA)).
as §2, §3

`C=CC(=O)Nc1cc(Nc2nccc(-c3cn(C)c4ccccc34)n2)c(OC)cc1N(C)CCN(C)C` [AZD9291, osimertinib, reference compound] was tested, and the “mitochondrial respiration after chronic drug treatment” value (MP2 cells [1]) was “dramatic shift towards mitochondrial respiration”, the “response to drug (viability)” value (MP1 cells [2]) was “minimal response” and the “response to drug (viability)” value (MP3 cells) was “complete insensitivity”. For the same molecule, the “response to drug (viability)” value (MP2 cells [3]) was “minimal response”.

`O=C(O)CCCCC(CCSCc1ccccc1)SCc1ccccc1` (centres unmarked) [CPI-613] was tested, and the “anti-proliferative activity, ranges of concentrations” value (H1299 cells [4]; monolayer or methylcellulose single cells (FIG. 3J)) was “anti-proliferative activity at comparable ranges of concentrations” and the “activity in spheres versus 2D/monolayer cultures” value (H1299 cells [5]; sphere forming assay compared with monolayer) was “more effective in sphere forming assays than in monolayer cultures”.

For `O=C(O)c1ccc(Cl)c(S(=O)(=O)Nc2cccc([N+](=O)[O-])c2)c1` [CTPI-1], the Kd (SLC25A1) was 63.6 µM, the “growth inhibitory activity, range of concentrations” value (H1299 cells [5]; human cells (FIGS. 2A and 2E)) was “millimolar range of concentrations” and the sphere forming capacity (H1299 cells [5]; one week after treatment, BTA 2 mM, CTPI 1 mM (FIG. 9F)) was “reduced sphere forming capacity”.

In the case of `N.N.[Cl][Pt][Cl]` [cisplatin, reference compound], the “mitochondrial respiration after chronic drug treatment” value (MP1 cells [6]) is reported as “dramatic shift towards mitochondrial respiration”, the apoptosis (MP1 cells [7]) is reported as “did not induce apoptosis” and the “stem cell markers in tumors (immuno-blot)” value (MP1 cells [8]; GMSC-derived tumors (FIG. 7F)) is reported as “enhanced”. For the same molecule, the “tumor growth, cisplatin alone” value (MP1 cells [8]; cisplatin 3 mg/Kg every three days (FIG. 7D)) was “inhibition of tumor growth but this effect was lost over time”, the “time until most tumors restarted to grow” value (MP1 cells [8]; cisplatin alone) was “two” and the “response to drug (viability)” value (MP1 cells [2]) was “minimal response”. The “response to drug (viability)” value (MP2 cells [3]) was “minimal response”.

For `CN(C)C(=N)N=C(N)N` [metformin], the “anti-proliferative activity in 2D cultures” value (H1299 cells [4]) was “no anti-proliferative activity”, the self-renewal (H1299 cells [5]) was “significantly reduced self-renewal” and the glycolytic rates (H1299 cells [9]) was “enhanced glycolytic rates”.

`CC[C@H]1/C=C/C=C/C[C@@H](C)[C@H](O)[C@@](C)(O)C(=O)[C@@H](C)[C@H](O)[C@@H](C)C(=O)[C@@H](C)[C@H](O)[C@@H](C)/C=C/C(=O)O[C@@H]2[C@H](C)[C@H](CC1)O[C@]1(CC[C@H](C)[C@H](C[C@@H](C)O)O1)[C@H]2C` [oligomycyn, oligomycin] was tested, and the “anti-proliferative activity in 2D cultures” value (H1299 cells [4]) was “no anti-proliferative activity” and the self-renewal (H1299 cells [5]) was “significantly reduced self-renewal”.

`C=C(C)[C@H]1Cc2c(ccc3c2O[C@@H]2COc4cc(OC)c(OC)cc4[C@@H]2C3=O)O1` [rotenone] was tested, and the “anti-proliferative activity in 2D cultures” value (H1299 cells [4]) was “no anti-proliferative activity” and the self-renewal (H1299 cells [5]) was “significantly reduced self-renewal”.
